Results published in ChEMBL document CHEMBL5331108, “Design and Synthesis of 4-Fluorophenyl-5-methylene-2(5H)-furanone Derivatives as Potent Quorum Sensing Inhibitors” (J Med Chem, 2023).
≈ marks a conversion by molar mass, not a printed value. Calls of active or inactive are those of the source. The rule behind the calls is not given here.

Legend:
Staphylococcus aureus [1] = test: Antibacterial activity against methicillin-resistant Staphylococcus aureus ATCC43300 assessed as inhibition of bacterial growth incubated for 20 hrs by CLSI protocol based microdilution method; format: functional
Pseudomonas aeruginosa [2] = test: Synergistic antibacterial activity against Pseudomonas aeruginosa 27853 assessed as inhibition of bacterial growth at 1 to 128 ug/ml incubated for 24 hrs by absorbance based microplate reader analysis; format: functional, organism-based; conditions: dose 1-128 µg/ml
Pseudomonas aeruginosa [3] = test: Synergistic antibacterial activity against Pseudomonas aeruginosa 27853 assessed as inhibition of bacterial growth at 1 to 256 ug/ml incubated for 24 hrs in the presence of Ciprofloxacin by absorbance based microplate reader analysis; format: functional, organism-based; conditions: dose 1-256 µg/ml
[4] = Inhibition of quorum sensing system in Pseudomonas aeruginosa PAO1 assessed as inhibition of protease activity at 102.4 ug/ml incubated for 24 hrs by absorbance based assay; conditions: dose 102.4 µg/ml
Pseudomonas aeruginosa [5] = test: Antibacterial activity against penicillin-susceptible Pseudomonas aeruginosa ATCC27853 assessed as inhibition of bacterial growth incubated for 20 hrs by CLSI protocol based microdilution method; format: functional
Pseudomonas aeruginosa [6] = test: Antibacterial activity against wild type Pseudomonas aeruginosa […] CGMCC1.12483 assessed as inhibition of bacterial growth incubated for 20 hrs by CLSI protocol based microdilution method; format: functional
Pseudomonas aeruginosa [7] = test: Synergistic antibacterial activity against Pseudomonas aeruginosa PAO1 assessed as inhibition of bacterial growth at 1 to 256 ug/ml incubated for 24 hrs in the presence of ciprofloxacin by absorbance based microplate reader analysis; format: functional, organism-based; conditions: dose 1-256 µg/ml
Escherichia coli = test: Antibacterial activity against penicillin-susceptible Escherichia coli ATCC25922 assessed as inhibition of bacterial growth incubated for 20 hrs by CLSI protocol based microdilution method; format: functional
Bacillus subtilis = test: Antibacterial activity against penicillin-susceptible Bacillus subtilis ATCC9372 assessed as inhibition of bacterial growth incubated for 20 hrs by CLSI protocol based microdilution method; format: functional
[8] = Inhibition of quorum sensing system in Pseudomonas aeruginosa PAO1 assessed as inhibition of pyocyanin production at 102.4 ug/ml incubated for 18 hrs by absorbance based assay; conditions: dose 102.4 µg/ml
[9] = Inhibition of quorum sensing system in Pseudomonas aeruginosa PAO1 assessed as inhibition of rhamnolipid production at 102.4 ug/ml incubated for 24 hrs by absorbance based assay; conditions: dose 102.4 µg/ml
Pseudomonas aeruginosa [10] = test: Antibacterial activity against Pseudomonas aeruginosa PAO1 assessed as inhibition of bacterial growth at 256 ug/ml measured after 25 hrs by absorbance based assay; format: functional, organism-based; conditions: dose 256.0 µg/ml
Pseudomonas aeruginosa [11] = test: Antibacterial activity against Pseudomonas aeruginosa 27853 assessed as inhibition of bacterial growth at 256 ug/ml measured after 25 hrs by absorbance based assay; format: functional, organism-based; conditions: dose 256.0 µg/ml
Pseudomonas aeruginosa [12] = test: Inhibition of biofilm formation in Pseudomonas aeruginosa PAO1 at 32 ug/ml incubated for 20 hrs by crystal violet staining based analysis; format: functional; conditions: dose 32.0 µg/ml
[13] = Hemolytic activity in mouse red blood cells assessed as hemolysis rate at 512 ug/ml incubated for 1 hrs by microplate reader analysis relative to control; format: toxicity, cell-based, Erythrocyte; conditions: red blood cells (erythrocytes), at 512 µg/mL, read-out: Activity
Pseudomonas aeruginosa [14] = test: Synergistic antibacterial activity against Pseudomonas aeruginosa 27853 assessed as inhibition of bacterial growth by measuring fold change in ciprofloxacin at 1 to 256 ug/ml incubated for 24 hrs by absorbance based microplate reader analysis; format: functional; conditions: dose 1-256 µg/ml
Staphylococcus aureus [15] = test: Antibacterial activity against erthromycin-susceptible Staphylococcus aureus ATCC25923 assessed as inhibition of bacterial growth incubated for 20 hrs by CLSI protocol based microdilution method; format: functional
Pseudomonas aeruginosa [16] = test: Synergistic antibacterial activity against Pseudomonas aeruginosa 27853 assessed as inhibition of bacterial growth incubated for 24 hrs in the presence of Clarithromycin by absorbance based microplate reader analysis; format: functional, organism-based; conditions: dose 1-256 µg/ml
Bacillus pumilus = test: Antibacterial activity against penicillin-susceptible Bacillus pumilus CMCC63202 assessed as inhibition of bacterial growth incubated for 20 hrs by CLSI protocol based microdilution method; format: functional
Pseudomonas aeruginosa [17] = test: Synergistic antibacterial activity against Pseudomonas aeruginosa PAO1 assessed as inhibition of bacterial growth at 1 to 256 ug/ml incubated for 24 hrs in the presence of Clarithromycin by absorbance based microplate reader analysis; format: functional, organism-based; conditions: dose 1-256 µg/ml
Pseudomonas aeruginosa [18] = test: Antibacterial activity against Pseudomonas aeruginosa 27853 assessed as inhibition of bacterial growth at […] incubated for 24 hrs by absorbance based microplate reader analysis relative to control; format: functional; conditions: dose 3.2 µg/ml
Pseudomonas aeruginosa [19] = test: Antibacterial activity against Pseudomonas aeruginosa 27853 assessed as inhibition of bacterial growth at 0.4 ug/ml incubated for 24 hrs by absorbance based microplate reader analysis relative to control; format: functional
Pseudomonas aeruginosa [20] = test: Antibacterial activity against Pseudomonas aeruginosa PAO1 assessed as inhibition of bacterial growth at 0.4 ug/ml incubated for 24 hrs by absorbance based microplate reader analysis relative to control; format: functional
Pseudomonas aeruginosa [21] = test: Synergistic antibacterial activity against Pseudomonas aeruginosa PAO1 assessed as inhibition of bacterial growth at 1 ug/ml incubated for 24 hrs in the presence of Clarithromycin by absorbance based microplate reader analysis relative to control; format: functional
Pseudomonas aeruginosa [22] = test: Synergistic antibacterial activity against Pseudomonas aeruginosa 27853 assessed as inhibition of bacterial growth at 64 ug/ml incubated for 24 hrs in the presence of Ciprofloxacin by absorbance based microplate reader analysis; format: functional
Pseudomonas aeruginosa [23] = test: Synergistic antibacterial activity against Pseudomonas aeruginosa 27853 assessed as inhibition of bacterial growth at 256 ug/ml incubated for 24 hrs in the presence of Clarithromycin by absorbance based microplate reader analysis relative to control; format: functional
Pseudomonas aeruginosa [24] = test: Synergistic antibacterial activity against Pseudomonas aeruginosa PAO1 assessed as inhibition of bacterial growth at 256 ug/ml incubated for 24 hrs in the presence of Clarithromycin by absorbance based microplate reader analysis relative to control; format: functional
Pseudomonas aeruginosa [25] = test: Antibacterial activity against Pseudomonas aeruginosa PAO1 assessed as inhibition of bacterial growth at […] incubated for 24 hrs by absorbance based microplate reader analysis relative to control; format: functional; conditions: dose 3.2 µg/ml
Pseudomonas aeruginosa [26] = test: Synergistic antibacterial activity against Pseudomonas aeruginosa PAO1 assessed as inhibition of bacterial growth at highest concentration incubated for 24 hrs in the presence of ciprofloxacin by absorbance based microplate reader analysis relative to control; format: functional
Pseudomonas aeruginosa [27] = test: Inhibition of biofilm formation in Pseudomonas aeruginosa PAO1 assessed as effect on biofilm morphology at 102.4 ug/ml incubated for 24 hrs by scanning electron microscopic analysis; format: functional, organism-based; conditions: dose 102.4 µg/ml
Enterococcus faecalis = test: Antibiofilm activity against Enterococcus faecalis ATCC19433 assessed as inhibition of biofilm formation incubated for 24 hrs by crystal violet staining based broth microdilution method; format: functional, organism-based; conditions: ATCC19433, 24 h
Staphylococcus aureus [28] = test: Antibiofilm activity against Staphylococcus aureus ATCC33591 assessed as inhibition of biofilm formation incubated for 24 hrs by crystal violet staining based broth microdilution method; format: functional, organism-based; conditions: ATCC33591, 24 h
Klebsiella pneumoniae = test: Antibiofilm activity against Klebsiella pneumoniae ATCC13882 assessed as inhibition of biofilm formation incubated for 24 hrs by crystal violet staining based broth microdilution method; format: functional, organism-based; conditions: ATCC13882, 24 h

Row | SMILES | MIC (Staphylococcus aureus [1]) [µg/mL] | Activity (Pseudomonas aeruginosa [3]) | inhibition [4] | MIC (Pseudomonas aeruginosa [5]) [µg/mL] | MIC (Pseudomonas aeruginosa [6]) [µg/mL] | Activity (Pseudomonas aeruginosa [7]) | MIC (Escherichia coli) [µg/mL] | MIC (Bacillus subtilis) [µg/mL] | inhibition [8] [%] | inhibition [9] | Activity (Pseudomonas aeruginosa [10]) | Activity (Pseudomonas aeruginosa [11]) | inhibition (Pseudomonas aeruginosa [12]) | hemolysis at 1 h, 512 ug/ml [13] [%] | MIC (Staphylococcus aureus [15]) [µg/mL] | Activity (Pseudomonas aeruginosa [16]) | MIC (Bacillus pumilus) [µg/mL] | Activity (Pseudomonas aeruginosa [17]) | further results
1 | C=C1OC(=O)C(CNC(=O)c2ccc(Br)cc2)=C1c1ccc(F)cc1 | 8 (≈ 19.9 µM) | Active | 8.6% | > 512 | > 512 | Active | > 512 | 16 (≈ 39.8 µM) | 34.7 | 48.5% | inactive | inactive | inactive | > 2.5 | > 512 | Dose-Dependent Effect | > 512 | Active | Activity (Pseudomonas aeruginosa [2]): Active; fold change (FC) (Pseudomonas aeruginosa [14]): >=1.5
2 | CC[C@H]1OC(=O)[C@H](C)[C@@H](O[C@H]2C[C@@](C)(OC)[C@@H](O)[C@H](C)O2)[C@H](C)[C@@H](O[C@@H]2O[C@H](C)C[C@H](N(C)C)[C@H]2O)[C@](C)(OC)C[C@@H](C)C(=O)[C@H](C)[C@@H](O)[C@]1(C)O [CLARITHROMYCIN] | 16 (≈ 21.4 µM) |  |  | 128 (≈ 171 µM) | 256 (≈ 342 µM) |  | 128 (≈ 171 µM) | 0.25 (≈ 0.334 µM) |  |  |  |  |  |  | 0.25 (≈ 0.334 µM) |  | 0.25 (≈ 0.334 µM) |  | inhibition at […] (Pseudomonas aeruginosa [18]): 32.7%
3 | O=C(O)c1cn(C2CC2)c2cc(N3CCNCC3)c(F)cc2c1=O [CIPROFLOXACIN] |  |  |  |  |  |  |  |  |  |  |  |  |  |  |  |  |  |  | inhibition at 0.4 µg/mL (Pseudomonas aeruginosa [19]): 26.2%; inhibition at 0.4 µg/mL (Pseudomonas aeruginosa [20]): 42.1%
4 | C=C1OC(=O)C(CNC(=O)c2ccc(C)cc2)=C1c1ccc(F)cc1 | > 512 | Active | Active | > 512 | > 512 | Active | > 512 | > 512 | 55.5 | Active | inactive | inactive | Active | < 2.5 | > 512 | Dose-Dependent Effect | > 512 | Active | inhibition at 1 µg/mL (Pseudomonas aeruginosa [21]): 54%; inhibition at 64 µg/mL (Pseudomonas aeruginosa [22]): 13%; inhibition at 256 µg/mL (Pseudomonas aeruginosa [23]): 45.4%; inhibition at 256 µg/mL (Pseudomonas aeruginosa [24]): 44.6%; inhibition at […] (Pseudomonas aeruginosa [25]): 44.6%
5 | C=C1OC(=O)C(CNC(=O)c2ccc(OC)cc2)=C1c1ccc(F)cc1 | 64 (≈ 181 µM) | Active | 8.6% | > 512 | > 512 | Active | > 512 | 128 (≈ 362 µM) | 44 | Active | inactive | inactive | Active |  | 32 (≈ 90.6 µM) | Dose-Dependent Effect | 32 (≈ 90.6 µM) | Active | inhibition (INH) (Pseudomonas aeruginosa [26]): 90.53%
6 | CC[C@H]1OC(=O)[C@H](C)[C@@H](O[C@H]2C[C@@](C)(OC)[C@@H](O)[C@H](C)O2)[C@H](C)[C@@H](O[C@@H]2O[C@H](C)C[C@H](N(C)C)[C@H]2O)[C@](C)(O)C[C@@H](C)CN(C)[C@H](C)[C@@H](O)[C@]1(C)O [AZITHROMYCIN] | 256 (≈ 342 µM) |  |  | 16 (≈ 21.4 µM) | 256 (≈ 342 µM) |  | 128 (≈ 171 µM) | 0.25 (≈ 0.334 µM) |  |  |  |  |  |  | 0.25 (≈ 0.334 µM) |  | 0.25 (≈ 0.334 µM) |  | inhibition (Pseudomonas aeruginosa [27]): inactive
7 | O=C1O/C(=C\c2cc(Br)c(O)c(Br)c2)C(c2ccc(O)c(Br)c2)=C1C(=O)c1ccccc1 |  |  |  |  |  |  |  |  |  |  |  |  |  |  |  |  |  |  | IC50 (Enterococcus faecalis): 3.6 µg/mL (≈ 5.8 µM); IC50 (Staphylococcus aureus [28]): 0.7 µg/mL (≈ 1.13 µM); IC50 (Klebsiella pneumoniae): 7.5 µg/mL (≈ 12.1 µM)
8 | C=C1C(c2ccc(F)cc2)=C(CNC(=O)c2ccc(C)cc2)C(=O)N1c1ccccc1C | > 512 | Active | 8.6% | > 512 | 512 (≈ 1200 µM) | Active | > 512 | > 512 | 38.3 | 45.9% | inactive | inactive | inactive | < 2.5 | > 512 | Dose-Dependent Effect | 512 (≈ 1200 µM) | Active | fold change (FC) (Pseudomonas aeruginosa [14]): >=1.5
